These results are taken from patent publication US20250073358A1, “AROMATIC VINYL COMPOUND, METAL COMPLEX THEREOF, AND PREPARATION METHOD THEREFOR AND USE THEREOF” (SHANGHAI MAXINOVEL PHARMACEUTICALS CO., LTD., priority 2021, published 2025).

One data set addresses PD-1/PD-L1 (Homo sapiens (Human), UniProt Q9NZQ7). Briefly: Homogenouse Time-Resolved Fluorescence (HTRF) binding assay, PD-1/PD-L1. The method, then:
Homogenouse Time-Resolved Fluorescence (HTRF) binding assay was used to detect the binding ability of the compound of the present disclosure to PD-1/PD-L1.
The purchased kit (CisBio, #64CUS000C-1) contains reagents required for experiments such as PD-1, PD-L1, anti-tag1-Eu, Anti-tag2-XL665, Dilute Buffer, and Detection Buffer.
• 1. The compound was configured with 100% DMSO into 10 concentrations with a concentration gradient of 3 times. • 2. The DMSO solution of the compound was added to Dilute Buffer solution, and the mixture was mixed well and transferred to a 96-well plate. • 3. PD-L1 was diluted with Dilute Buffer solution and then added to the above 96-well plate. • 4. PD-1 was diluted with Dilute Buffer solution and then added to the above 96-well plate, and incubated at room temperature for 30 minutes. • 5. One part of anti-tag1-Eu and one part of Anti-tag2-XL665 were added to Detection Buffer solution, and the mixture was mixed well and transferred to the above 96-well plate. • 6. The mixture in the 96-well plate was incubated at room temperature for 1 to 24 hours. • 7. The HTRF values were read with Envision.

Data set [1] relates to MC38-PDL1 tumor (MC-38-hPD-L1 cells). Briefly: Tumor targeting study in Micro-PET/CT scanning, bilateral tumor model (Effect Embodiment 4), left tumor. Type of data set: in vivo, C57BL/6J mice. The following applies: Micro-PET/CT imaging, bilateral tumor mice. The protocol: • Tumor targeting study of compound 80 in Micro-PET/CT scanning • Experimental animal information: C57BL/6J mice, SPF grade; 15-21 g; • Construction of Bilateral Tumor Model Mice: • Cell Culture
(§1) Human-derived PD-L1 gene knock-in MC-38 cells (MC-38-hPD-L1 cells) were adherently cultured in vitro, and the culture conditions were DMEM medium plus 10% heat-inactivated fetal bovine serum and hygromycinB (final concentration was […]), and the cells were cultured at 37° C. with 5% CO2. Subculture of 2-3 times a week. When the cells were in the exponential growth phase, the cells were harvested, counted, and the left side of the mice was inoculated subcutaneously.
(§2) Mouse-derived MC-38 cells were adherently cultured in vitro, and the culture conditions were DMEM medium plus 10% heat-inactivated fetal bovine serum, and the cells were cultured at 37° C. with 5% CO2. Subculture of 2-3 times a week. When the cells were in the exponential growth phase, the cells were collected, counted, and the right side of the mice was inoculated subcutaneously.
(§3) 100 μL of 1×10^6 MC-38-hPD-L1 cell suspension was inoculated subcutaneously on the left dorsal side of C57BL/6J mice. The same mice were subcutaneously inoculated with 100 μL of 1×10^6 MC-38 cell suspension on the right dorsal side on the second day. After inoculation, the mice were fed normally, and after a certain number of days, tumor-bearing mice with the volume of bilateral transplanted tumor in the range of 150 mm^3−350 mm^3 were selected for test.
After quality control, compound 80 was diluted with 10% ethanol in physiological saline, and the drug was extracted and injected into each animal through tail vein. The administration volume was 100 μL/animal, and the administration dose was 100-200 μCi/animal. The study of Micro-PET/CT imaging was performed at 0.5 h, 1.5 h, 2.5 h, 3.5 h after injection of compound 80.

For data set [2] the test system is unchanged. Kind of data set: Tumor targeting study in Micro-PET/CT scanning, bilateral tumor model (Effect Embodiment 3), left tumor. Type of data set: in vivo, C57BL/6J mice. The following applies: Micro-PET/CT imaging, bilateral tumor mice.
Description: Tumor targeting study of compound 79 in Micro-PET/CT scanning 1. Experimental animal information: C57BL/6J mice, SPF grade; 15-21 g; model mouse construction: bilateral tumor • Construction of bilateral tumor model mice • Cell culture
as §1, §2, §3
After quality control, compound 79 was diluted with 10% ethanol in physiological saline, and the drug was extracted and injected into each animal through tail vein. The administration volume was 100 μL/animal, and the administration dose was 100-200 μCi/animal. The study of Micro-PET/CT imaging was performed at 0.5 h, 1.5 h, 2.5 h, 3.5 h after injection of compound 79.

The test system of the next data set is tumor. Briefly: Inhibitory effect on tumor in tumor-bearing mice. Type of data set: in vivo, C57/BL6 mice. The following applies: tail vein injection, 45 MBq per mouse, compared with the control group (PBS). The text has this:
• 1. Inhibitory effect of compound 78 on tumor • 1.1 Experimental animal information: tumor-bearing C57/BL6 mice; SPF grade; weight range: 17-20 g; Shanghai Qi'up Biomedical Technology Co., Ltd. • 1.2 Experimental process
Ten tumor-bearing mice with tumor volumes of 10-100 mm^3 were systematically and randomly divided into 2 groups according to tumor size, with 5 mice in each group, corresponding to PBS and compound 78 respectively. After anesthesia with isoflurane, tumor-bearing mice were injected into the tail vein with compound 78 with 45 MBq (approximately 1.2 mCi) per mouse and a volume of 0.2 mL. After administration, the tumor size and weight of the animals were measured periodically, and the tumor growth curve was drawn to understand the inhibitory effect of the drug on tumor.

PD-1/PD-L1, sequence (Q9NZQ7 19-238): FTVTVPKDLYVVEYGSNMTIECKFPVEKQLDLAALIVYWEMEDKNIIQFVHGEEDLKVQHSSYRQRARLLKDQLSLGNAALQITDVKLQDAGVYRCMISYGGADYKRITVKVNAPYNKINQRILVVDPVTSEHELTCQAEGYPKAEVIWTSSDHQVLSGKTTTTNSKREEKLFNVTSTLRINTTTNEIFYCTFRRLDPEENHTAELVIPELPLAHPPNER

Compound `Cc1c(/C=C/c2cc(OCCNC(=O)C3CCN(C(=O)CN4CCN(CC(=O)O)CCN(CC(=O)O)CCN(CC(=O)O)CC4)CC3)c(CN3CCCC[C@H]3C(=O)O)cc2C(F)(F)F)cccc1-c1ccccc1` [Compound 36] registered an IC50 on PD-1/PD-L1 of 0.521 nM. The “uptake value of left tumor (MC38-PDL1) compared with right tumor (MC38)” value (“uptake value … compared with right tumor (MC38)” for short) in data set [1] is reported as “significantly higher”.

As for `Cc1c(/C=C/c2cc(OCCCCNC(=O)CN3CCN(CC(=O)[O-])CCN(CC(=O)[O-])CC3)c(CN3CCCC[C@H]3C(=O)O)cc2C(F)(F)F)cccc1-c1ccccc1.[Al+3].[F-]` [Compound 62], on PD-1/PD-L1, the IC50 was determined as 0.529 nM. In addition, the “uptake value … compared with right tumor (MC38)” value in data set [2] is given as “significantly higher”. Turning to `COc1cc(C(=O)Nc2cccc(-c3cccc(/C=C/c4cc(OCCOCCN5CCN6CCN(CC5)CC(=O)[O][Al]([F])[O]C(=O)C6)c(CN5CCCC[C@H]5C(=O)O)cc4C(F)(F)F)c3C)c2C)ncc1CN1CCCC[C@H]1C(=O)O` [Compound 82], the “uptake value … compared with right tumor (MC38)” value in data set [2] is “significantly higher”.

In turn, `Cc1c(/C=C/c2cc(OCCNC(=O)C3CCC(CNC(=O)CN4CCN(CC(=O)O)CCN(CC(=O)O)CCN(CC(=O)O)CC4)CC3)c(CN3CCCC[C@H]3C(=O)O)cc2C(F)(F)F)cccc1-c1ccccc1` (some centres unmarked) [Compound 35] returned an IC50 at PD-1/PD-L1 of 0.766 nM. In addition, the “uptake value … compared with right tumor (MC38)” value in data set [1] was “significantly higher”.

For the compound `Cc1c(/C=C/c2cc(OCCCCCCNC(=O)CN3CCN(CC(=O)[O-])CCN(CC(=O)[O-])CCN(CC(=O)[O-])CC3)c(CN3CCCC[C@H]3C(=O)O)cc2C(F)(F)F)cccc1-c1ccccc1.[Ga+3]` [Compound 28], the IC50 on PD-1/PD-L1 came out at 0.562 nM. Besides, the “uptake value … compared with right tumor (MC38)” value in data set [1] is given as “significantly higher”. With `Cc1cc(CN2CCCC[C@H]2C(=O)O)c(OCCCCCN2CCN(CC(=O)O)CCN(CC(=O)O)CCN(CC(=O)O)CC2)cc1/C=C/c1cccc(-c2ccccc2)c1C` [Compound 72], at PD-1/PD-L1, the IC50 was determined as 112 nM. Also, the “inhibition of tumor growth” value with tumor is “very good therapeutic effects on inhibiting tumor growth”.

Compound `Cc1c(/C=C/c2cc(OCCCCNC(=O)CN3CCN(CC(=O)O)CCN(CC(=O)O)CCN(CC(=O)O)CC3)c(CN3CCCC[C@H]3C(=O)O)cc2C(F)(F)F)cccc1-c1ccccc1` [Compound 8] had an IC50 at PD-1/PD-L1 of 0.522 nM. Also, the “uptake value … compared with right tumor (MC38)” value in data set [1] is listed as “significantly higher”. For `Cc1ccc(CCCC(=O)NCCCC[C@H](NC(=O)CN2CCN(CC(=O)O)CCN(CC(=O)O)CCN(CC(=O)O)CC2)C(=O)NCCCCCCOc2cc(/C=C/c3cccc(-c4ccccc4)c3C)c(C(F)(F)F)cc2CN2CCCC[C@H]2C(=O)O)cc1` [Compound 27] the same measures were 13.6 nM and “significantly higher”. For `Cc1c(/C=C/c2cc(OCC3CCN(C(=O)CN4CCN(CC(=O)O)CCN(CC(=O)O)CCN(CC(=O)O)CC4)CC3)c(CN3CCCC[C@H]3C(=O)O)cc2C(F)(F)F)cccc1-c1ccccc1` [Compound 37] the same measures were 0.729 nM and “significantly higher”.

`Cc1c(/C=C/c2cc(OCCOCCN3CCN(CC(=O)O)CCN(CC(=O)O)CCN(CC(=O)O)CC3)c(CN3CCCC[C@@H]3C(=O)O)cc2C(F)(F)F)cccc1-c1ccccc1` [Compound 70] showed an IC50 on PD-1/PD-L1 of 47.7 nM. Moreover, the “inhibition of tumor growth” value in the data set on tumor is reported as “very good therapeutic effects on inhibiting tumor growth”. For `Cc1c(/C=C/c2cc(OCCNC(=O)C3CCN(C(=O)CN4CCN(CC(=O)O)CCN(CC(=O)O)CCN(CC(=O)O)CC4)CC3)c(CN3CCCC[C@H]3C(=O)O)cc2C(F)(F)F)cccc1-c1ccccc1` [Compound 38] the same measures were 1.13 nM and “very good therapeutic effects on inhibiting tumor growth”. On PD-1/PD-L1, `Cc1c(/C=C/c2cc(OCCOCCN3CCN(CC(=O)O)CCN(CC(=O)O)CCN(CC(=O)O)CC3)c(CN3CCCC[C@H]3C(=O)O)cc2C(F)(F)F)cccc1-c1ccccc1` [Compound 7] gave an IC50 of 0.969 nM. In addition, the “uptake value … compared with right tumor (MC38)” value in data set [1] is “significantly higher”. In the case of `Cc1ccc(CCCC(=O)NCCCC[C@H](NC(=O)CN2CCN(CC(=O)O)CCN(CC(=O)O)CCN(CC(=O)O)CC2)C(=O)NCC2CCC(C(=O)NCCOc3cc(/C=C/c4cccc(-c5ccccc5)c4C)c(C(F)(F)F)cc3CN3CCCC[C@H]3C(=O)O)CC2)cc1` (some centres unmarked) [Compound 22], at PD-1/PD-L1, the IC50 was 5.03 nM. Moreover, the “inhibition of tumor growth” value in the data set on tumor is listed as “very good therapeutic effects on inhibiting tumor growth”.

For the compound `N#Cc1c(-c2ccccc2)ccnc1/C=C/c1cc(OCCCCCN2CCN(CC(=O)[O-])CCN(CC(=O)[O-])CC2)c(CN2CCCC[C@H]2C(=O)O)cc1C(F)(F)F.[Al+3].[F-]` [Compound 58], in data set [2], the “uptake value … compared with right tumor (MC38)” value was “significantly higher”.

For `Cc1c(/C=C/c2cc(OCCOCCN3CCN(CC(=O)[O-])CCN(CC(=O)[O-])CCN(CC(=O)[O-])CC3)c(CN3CCCC[C@H]3C(=O)O)cc2C(F)(F)F)cccc1-c1ccccc1.[68Ga+3]` [Compound 75], the “uptake value … compared with right tumor (MC38)” value in data set [1] is on record as “significantly higher”.

As for `Cc1c(/C=C/c2cc(OCC3CCN(C(=O)CN4CCN(CC(=O)O)CCN(CC(=O)O)CCN(CC(=O)O)CC4)CC3)c(CN3CCCC[C@H]3C(=O)O)cc2C(F)(F)F)cccc1-c1ccccc1` [Compound 20], on PD-1/PD-L1, the IC50 worked out at 1.01 nM. The “inhibition of tumor growth” value in the data set with tumor is on record as “very good therapeutic effects on inhibiting tumor growth”.

For `Cc1c(/C=C/c2cc(OCCCCCCNC(=O)CN3CCN(CC(=O)[O-])CCN(CC(=O)[O-])CCN(CC(=O)[O-])CC3)c(CN3CCCC[C@H]3C(=O)O)cc2C(F)(F)F)cccc1-c1ccccc1.[Lu+3]` [Compound 24], the IC50 on PD-1/PD-L1 turned out to be 0.785 nM. In addition, the “inhibition of tumor growth” value in the data set on tumor is “very good therapeutic effects on inhibiting tumor growth”.

With `Cc1ccc(CCCC(=O)NCCCC[C@H](NC(=O)CN2CCN(CC(=O)O)CCN(CC(=O)O)CCN(CC(=O)O)CC2)C(=O)NCCOCCOc2cc(/C=C/c3cccc(-c4ccccc4)c3C)c(C(F)(F)F)cc2CN2CCCC[C@H]2C(=O)O)cc1` [Compound 32], the IC50 on PD-1/PD-L1 came to 12.4 nM. In addition, in the data set on tumor, the “inhibition of tumor growth” value is reported as “very good therapeutic effects on inhibiting tumor growth”.

On PD-1/PD-L1, `Cc1c(/C=C/c2cc(OCCNC(=O)C3CCC(CNC(=O)CN4CCN(CC(=O)O)CCN(CC(=O)O)CCN(CC(=O)O)CC4)CC3)c(CN3CCCC[C@H]3C(=O)O)cc2C(F)(F)F)cccc1-c1ccccc1` (some centres unmarked) [Compound 14] showed an IC50 of 0.95 nM. Further, the “inhibition of tumor growth” value with tumor is recorded as “very good therapeutic effects on inhibiting tumor growth”. Take `N#Cc1c(-c2ccccc2)ccnc1/C=C/c1cc(OCC2CCN(C(=O)CN3CCN(CC(=O)[O-])CCN(CC(=O)[O-])CC3)CC2)c(CN2CCCC[C@H]2C(=O)O)cc1C(F)(F)F.[Al+3].[F-]` [Compound 60]: the “uptake value … compared with right tumor (MC38)” value in data set [2] is on record as “significantly higher”.

The compound `Cc1ccc(CCCC(=O)NCCCC[C@H](NC(=O)CN2CCN(CC(=O)O)CCN(CC(=O)O)CCN(CC(=O)O)CC2)C(=O)NCCOc2cc(/C=C/c3cccc(-c4ccccc4)c3C)c(C(F)(F)F)cc2CN2CCCC[C@H]2C(=O)O)cc1` [Compound 13] displayed an IC50 on PD-1/PD-L1 of 300 nM. In addition, in the data set on tumor, the “inhibition of tumor growth” value is listed as “very good therapeutic effects on inhibiting tumor growth”.
